Source: patent US20220192195A1, “HERBICIDAL COMPOSITIONS” (SYNGENTA CROP PROTECTION AG, priority 2019, published 2022)

Tests used:
Experiment in all cases: Post-emergence efficacy (B1), compounds of Formula (I) alone, evaluated after 13 days
Type in all cases: in vivo
[1] = system: Chenopodium album (CHEAL); details: 500 g/Ha, post-emergence spray
Method: (§1) Seeds of a variety of test species were sown in standard laom-based soil in pots: Ipomoea hederacea (IPOHE), Euphorbia heterophylla (EPHHL), Chenopodium album (CHEAL), Amaranthus palmeri (AMAPA), Lolium perenne (LOLPE), Digitaria sanguinalis (DIGSA), Eleusine indica (ELEIN), Echinochloa crus-galli (ECHCG), Setaria faberi (SETFA). After cultivation for 14 days (post-emergence) under controlled conditions in a glasshouse (at 24/16° C., day/night; 14 hours light; 65% humidity), the plants were sprayed with an aqueous spray solution derived from the dissolution of the technical active ingredient Formula (I) in a small amount of acetone and a special solvent and emulsifier mixture referred to as IF50 (11.12% Emulsogen EL360 TM+44.44% N-methylpyrrolidone+44.44% Dowanol DPM glycol ether), to create a 50 g/I solution which was then diluted to required concentration using 0.25% or 1% Empicol ESC70 (Sodium lauryl ether sulphate)+1% ammonium sulphate as diluent. The delivery of the aqueous spray solution was via a laboratory track sprayer which delivered the aqueous spray composition at a rate of 200 litres per hectare, using a flat fan nozzle (Teejet 11002VS) and an application volume of 200 litre/ha (at 2 bar).
(§2) The test plants were then grown in a glasshouse under controlled conditions (at 24/16° C., day/night; 14 hours light; 65% humidity) and watered twice daily. After 13 days the test was evaluated (100=total damage to plant; 0=no damage to plant).

[2] = system: Amaranthus palmeri (AMAPA); details: 500 g/Ha, post-emergence spray
Method: as §1, §2

[3] = system: Eleusine indica (ELEIN); details: 500 g/Ha, post-emergence spray
Method: as §1, §2

[4] = system: Euphorbia heterophylla (EPHHL); details: 500 g/Ha, post-emergence spray
Method: as §1, §2

[5] = system: Setaria faberi (SETFA); details: 312 h, post-emergence spray, read-out: Control of weed species after post-emergence application: SETFA (100=total damage to plant; 0=no damage to plant)
Method: as §1, §2

[6] = system: Ipomoea hederacea (IPOHE); details: 312 h, post-emergence spray, read-out: Control of weed species after post-emergence application: IPOHE (100=total damage to plant; 0=no damage to plant)
Method: as §1, §2

[7] = system: Echinochloa crus-galli (ECHCG); details: 312 h, post-emergence spray, read-out: Control of weed species after post-emergence application: ECHCG (100=total damage to plant; 0=no damage to plant)
Method: as §1, §2

[8] = system: Digitaria sanguinalis (DIGSA); details: 312 h, post-emergence spray, read-out: Control of weed species after post-emergence application: DIGSA (100=total damage to plant; 0=no damage to plant)
Method: as §1, §2

[9] = system: Lolium perenne (LOLPE); details: 312 h, post-emergence spray, read-out: Control of weed species after post-emergence application: LOLPE (100=total damage to plant; 0=no damage to plant)
Method: as §1, §2

SMILES	Control of weed species after post-emergence application: CHEAL (100=total damage to plant; 0=no damage to plant) [1]	Control of weed species after post-emergence application: AMAPA (100=total damage to plant; 0=no damage to plant) [2]	Control of weed species after post-emergence application: ELEIN (100=total damage to plant; 0=no damage to plant) [3]	Control of weed species after post-emergence application: EPHHL (100=total damage to plant; 0=no damage to plant) [4]	pest or weed control at 500 g/ha [5] [%]	pest or weed control at 500 g/ha [6] [%]	pest or weed control at 500 g/ha [7] [%]	pest or weed control at 500 g/ha [8] [%]	pest or weed control at 500 g/ha [9] [%]
N[C@H](CC[n+]1ccc(-c2ncccn2)cn1)C(=O)O.O=C(O)C(F)(F)F.O=C([O-])C(F)(F)F [Compound 1.029, [(1R)-1-carboxy-3-(4-pyrimidin-2-ylpyridazin-1-ium-1-yl)propyl]-ammonium 2,2,2-trifluoroacetate]	100	100	100	90	–	–	–	–	–
N[C@@H](CC[n+]1ccc(-c2ncccn2)cn1)C(=O)O.O=C(O)C(F)(F)F.O=C([O-])C(F)(F)F [Compound 1.035, [(1S)-1-carboxy-3-(4-pyrimidin-2-ylpyridazin-1-ium-1-yl)propyl]-ammonium 2,2,2-trifluoroacetate]	100	100	100	90	100	90	60	90	20
